Entries after “also recorded” stand apart in the source; their conditions may differ.
Legend:
[1] = test system: Min6 cells; assay: Measurement of intracellular ATP concentrations; type: cell-based, mouse; conditions: DFO treatment
Method: ATP concentrations were measured in islets and in Min6 cells following exposure to low (1 mM) or high glucose (25 mM) for 30 minutes. At the 30 minute timepoint, cells were placed on ice, washed twice in ice-cold PBS and lysed and ATP was measured using a kit purchased from Roche, according to the manufacturer's instructions.

[2] = test system: Min6 cells; assay: Glucose-stimulated insulin secretion (GSIS) in Min6 cells; type: cell-based, mouse; conditions: DFO treatment
[3] = test system: diabetic SCID mice; assay: Minimal mass human islet transplantation into diabetic SCID mice; type: in vivo, mouse; conditions: human islets
Method: Human pancreatic islets were isolated from normal glucose tolerant donors as previously described (Gunton et al., 2005). Islets were transplanted under the left kidney capsule of SCID mice which had been rendered diabetic by injection of Alloxan at 95 mg/kg intravenously. Islets were transplanted in adequate mass (2000 IEQ per mouse), or minimal mass (600 IEQ per mouse). In each of the islet isolations, 2000 control-treated IEQ per mouse was adequate to cure diabetes. As expected, 600 control-treated IEQ per mouse was not adequate to control glucose at day 28 post-transplant in any mouse. […]

[4] = test system: human islets; assay: Insulin release of human islets at low and high glucose; type: cell-based; conditions: DFO 4 hours, low (5 mM) and high (11 mM) glucose
Method: The present inventors were interested to determine whether DFO was beneficial for function of human islets. Islets were isolated from people with normal glucose tolerance and treated with control media or media supplemented with DFO for 4 hours, and insulin release subsequently measured at low (5 mM) and high (11 mM) glucose concentrations.

[5] = test system: diabetic recipient mouse; assay: Mouse islet transplantation into streptozotocin-diabetic mice; type: in vivo; conditions: mouse islets cultured with 125 μM DFO 2 hours before transplantation, 1 donor:1 recipient, followed 28 days
Method: Islets were isolated from control mice and cultured with either control media or control media plus 125 μM DFO under normoxic conditions or in control media under hypoxic conditions (5% O2) for 2 hours before transplantation. All the islets from 1 donor mouse were transplanted into 1 recipient mouse which had been rendered diabetic (random glucose>22 mM) by streptozotocin treatment.
Transplant recipients were followed for 28 days, at which time nephrectomy was performed to confirm recurrence of diabetes.

[6] = test system: Min6 cells; assay: Gene expression in Min6 cells by real-time PCR; type: cell-based, mouse
Method: Human pancreatic islets were purified from seven normoglycemic subjects using the modified Ricordi method (Ricordi et al., 1988) as previously described (Gunton et al., 2005). The subjects are described in (Gunton et al., 2005), and were matched for age and body-mass-index. Gene expression was measured by real-time-PCR and was performed in a two-step reaction using the Invitrogen RT-for-PCR kit. The second step was performed in a fluorescent temperature cycler (ABI-Prism 7700 Sequence Detection System, Applied Biosystems) with LightCycler-RNA Master SYBR-Green-I (Roche, Mannheim, Germany) and specific primers for each of the genes (sequences available on request). Every plate included a control gene (TATA-box binding protein/TBP) for every subject. Results were analysed by unpaired t-test.
In separate experiments, treated cells were lysed, and RNA isolated for real-time-PCR.
Following treatment with HIF-1α RNAi, the present inventors measured expression of genes in the maturity onset diabetes of the young (MODY) family, insulin-signalling and glucose-uptake and glycolytic genes by real-time PCR. […] In the insulin signaling pathway, HIF-1α knockdown decreased insulin-receptor substrate (IRS)-2 mRNA (FIG. 3E).
Min6 cells were treated with DFO at the doses indicated for 4 hours.

CC(=O)N(O)CCCCCNC(=O)CCC(=O)N(O)CCCCCNC(=O)CCC(=O)N(O)CCCCCN [DFO, desferrioxamine]
ATP generation [1]: increased ATP generation; also recorded: increased ATP concentrations | glucose stimulated insulin secretion (GSIS) [2]: substantial increase in GSIS | success rate following transplant of 600 IEQ ([3]; DFO 125 μM for 4 hours pre-transplantation, day 28): 75% | cure of diabetes following transplantation of 600 IEQ ([3]; DFO 125 μmol/L prior to transplantation, n=8): 75% | insulin release (GSIS) of human islets [4]: markedly increased; also recorded: markedly improved GSIS | average glucose after transplantation [5]: 11.4 mM | expression of ARNT ([6]; DFO 4 hours): did not alter expression of the house-keeping genes TATA-box binding protein (TBP) or transthyretin, or (B) increase expression of ARNT | expression of housekeeping genes TATA-box binding protein (TBP) and transthyretin ([6]; DFO 4 hours): did not increase expression; also recorded: did not alter expression | expression of mRNAs for Akt2, GLUT1, GLUT2, HNF4α, IRS2 and phosphoglucomutase (PGM) ([6]; DFO 4 hours): dose-dependently increased expression; also recorded: significantly increased expression | expression of HNF1α, HNF1β and insulin receptor ([6]; DFO 4 hours (data not shown)): did not alter | HIF-1α mRNA expression ([6]; highest dose of DFO, 4 hours): small but significant increase; also recorded: showed increased expression
